Laboratory results reported in US9138659B2, “Compositions, methods, and systems relating to controlled crystallization and/or nucleation of molecular species” (Massachusetts Institute of Technology, priority 2010, dated 2015).

How the values were obtained:
[1] = Nucleation induction time of aspirin on nanopatterned AA-co-DVB polymer films from butyl acetate; assay type: physicochemical; details: for Nucleation induction time τ: aspirin, butyl acetate
Excerpt: The effect of nanopatterned polymer films on the kinetics of nucleation from solution was quantified by measuring the nucleation induction time of aspirin, a representative small organic molecule. The polymer film was made from acrylic acid crosslinked with divinylbenzene (AA-co-DVB), with which aspirin could interact via hydrogen bonding. Polymer crosslinking was designed to avoid solvent uptake and to maintain the surface morphology when in contact with the solution. Due to the stochastic nature of nucleation events, 20 to 50 samples were tested simultaneously to obtain the probability distribution for the nucleation induction time. The average induction time, τ, was determined from a statistical analysis on the induction time data assuming that nucleation follows a Poisson distribution, P(t)=exp(−t/τ). The nucleation rate, J, was calculated from τ via J=1/τV, where V is the volume of solution, with the assumption that the time scale of nucleation is much longer than that of crystal growth, valid for this system.
In FIG. 14: Effect of the nanopore shape in AA-co-DVB polymer films on the nucleation kinetics of aspirin: flat vs. spherical pores (left); spherical pores vs. hexagonal pores and square pores of the same size (right). J is the nucleation rate, in number of nuclei per ml of solution per hour, calculated from the average nucleation induction time τ by J=1/τV, where V is the volume of solution. The standard errors of J were calculated from the regression on the induction time probability distribution following the Poisson distribution.
Nucleation Induction Time Measurement: Once synthesized, the polymer film with its substrate was inserted vertically into a 1 ml glass shell vial containing 200 μl 47 mg/ml aspirin solution in butyl acetate. For each polymer sample, 20-50 vials were assembled and immersed in a circulator stabilized at 50±0.1° C. to dissolve any pre-existing crystals, and then the solution was quench cooled to 5±0.1° C. by immersing into a second circulator. The number of vials in which crystallization occurred was recorded as a function of time. All the operations involving exposing polymer films, aspirin solutions and shell vials to the atmosphere were conducted inside a Bio Safety Cabinet to reduce impurity contamination to the lowest level. Efforts were made to clean all components before usage and aspirin solutions were filtered with an Acrodisc 0.2 μm PTFE syringe filter.

[2] = Equilibrium partitioning of ASA / ACM into PEGDA and PEGDA-co-AM gels; assay type: physicochemical
Experimental: This theory is exemplified by quantifying the partitioning of aspirin between the PEGDA gel phase and 38/62 ethanol/water (v/v), and determining the concentration of aspirin in the hydrogel particles. The partitioning experiments were performed at the same solution concentration and temperature as in the nucleation induction time experiments. In the partitioning experiment, both the concentrations of aspirin and ethanol were measured, as there are three species in the bulk solution, namely aspirin, ethanol and water, all of which partition in the gel phase to a certain degree determined by their relative interaction with the PEGDA polymer matrix.
Composition of aspirin solution in the PEGDA gel phase were compared with the bulk phase. PEGDA gels sufficiently large for convenient handling were synthesized by UV polymerization, following the same formulation as the synthesis of PEGDA particles used in the crystallization study. The PEGDA gels were washed with ethanol and vacuum dried to remove unreacted species. The gel was then immersed in excessive 38 mg/ml aspirin solution in 38/62 ethanol/water (v/v) and allowed sufficient time to reach equilibrium swelling at 15° C. before taken out, pad dried, and put in excessive water. After 5 hours immersed in water, the concentrations of aspirin and ethanol in the aqueous phase were analyzed by UV-Vis spectroscopy and Gas Chromatography, respectively.
In FIG. 10: Partitioning of aspirin vs. acetaminophen in the PEGDA gel. Y axis represents the relative API concentration in the PEGDA, normalized by the bulk concentration. The aspirin partitioning experiment was conducted in 38 mg/ml aspirin solution in 38/62 ethanol/water (v/v) at 15° C. As for acetaminophen, 95 mg/ml acetaminophen solution in 38/62 ethanol/water (v/v) was used and the equilibration temperature was 8° C. In both cases, the experimental conditions were kept the same as used in the nucleation induction time study.
Quantification of polymer-solute interactions: The strength of intermolecular interactions between the PEGDA-co-AM polymer network and the molecule to crystallize was characterized with the solute equilibrium partition coefficient at the same condition as used in the crystallization study. Solute partition coefficient κ, defined as the ratio of solute mass fraction in solution confined in the gel to that in the bulk, is a relevant parameter because it informs the solute concentration in the gel at the crystallization condition, which is an important factor affecting nucleation. […] The PEGDA polymers are comprised of the PEG subchain and the acrylate crosslinkers.
Partition coefficient measurements: Partition coefficients of ASA in PEGDA-co-AM gels from its bulk solution were determined as follows. In brief, a series of gels with varying mesh sizes of approximately 5 mm in diameter and 0.5 mm in thickness were synthesized via UV polymerization following the same formula as used in the microgel synthesis. The residue solvent, porogen and monomer molecules were removed by extensive washing with solvent ethanol and subsequent vacuum drying. The dry gels were then immersed in excessive volume of 38 mg/ml ASA solution in 38/62 (v/v) ethanol/water at 15° C. for overnight.

enhancement of aspirin nucleation rate relative to spherical pores ([1]; AA-co-DVB film with hexagonal pores): more than an order of magnitude | enhancement of aspirin nucleation rate relative to spherical pores ([1]; AA-co-DVB film with square pores): three-fold | Nucleation induction time τ ([1]; AA-co-DVB film with hexagonal nanopores, 15 nm): 26 ± 7 min | Nucleation induction time τ ([1]; AA-co-DVB film with square nanopores, 125 nm): 138 ± 12 min | increase of κ after introducing AM into the PEGDA gel ([2]; ASA, on average): 60% | molar ratio of ethylene oxide units in PEG to ASA ([2]; PEGDA gels, all mesh sizes, calculated from the partition experiments): 7.7 | AM to ASA molar ratio ([2]; PEGDA-co-AM gels): around unity | ASA concentration in the PEGDA-co-AM gels relative to bulk solution ([2]; PEGDA-co-AM gels): as high as six times | aspirin concentration in PEGDA particles with respect to the bulk ([2]; all PEGDA particles, 38 mg/ml in 38/62 ethanol/water, 15° C): more than three times
Structure (SMILES): CC(=O)Oc1ccccc1C(=O)O [aspirin]
